# Assay results: PubChem BioAssay (NCI)
#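 Grown in 96-well plates, cells were treated for 48 hours with each compound at five concentrations. Insufficient inhibition: endpoint recorded as highest concentration tested. At the TGI there is no net growth.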
# Experiments:
# Assay in all cases: inhibition of tumour cell growth, NCI panel, 48 h
# 786-0 renal = test system: 786-0 renal
# A498 renal = test system: A498 renal
# A549 NSCLC = test system: A549 NSCLC
# ACHN renal = test system: ACHN renal
# CAKI-1 renal = test system: CAKI-1 renal
# CCRF-CEM leukemia = test system: CCRF-CEM leukemia
# COLO 205 colon = test system: COLO 205 colon
# DLD-1 colon = test system: DLD-1 colon
# DMS 114 small cell lung = test system: DMS 114 small cell lung
# DMS 273 small cell lung = test system: DMS 273 small cell lung
# HCC-2998 colon = test system: HCC-2998 colon
# HCT-116 colon = test system: HCT-116 colon
# HCT-15 colon = test system: HCT-15 colon
# HL-60(TB) leukemia = test system: HL-60(TB) leukemia
# HOP-18 NSCLC = test system: HOP-18 NSCLC
# HOP-62 NSCLC = test system: HOP-62 NSCLC
# HOP-92 NSCLC = test system: HOP-92 NSCLC
# HT29 colon = test system: HT29 colon
# IGROV1 ovarian = test system: IGROV1 ovarian
# K-562 leukemia = test system: K-562 leukemia
# KM12 colon = test system: KM12 colon
# KM20L2 colon = test system: KM20L2 colon
# LOX IMVI melanoma = test system: LOX IMVI melanoma
# LXFL 529 NSCLC = test system: LXFL 529 NSCLC
# M14 melanoma = test system: M14 melanoma
# M19-MEL melanoma = test system: M19-MEL melanoma
# MALME-3M melanoma = test system: MALME-3M melanoma
# MOLT-4 leukemia = test system: MOLT-4 leukemia
# NCI-H23 lung = test system: NCI-H23 lung
# NCI-H460 lung = test system: NCI-H460 lung
# NCI-H522 lung = test system: NCI-H522 lung
# OVCAR-3 ovarian = test system: OVCAR-3 ovarian
# OVCAR-4 ovarian = test system: OVCAR-4 ovarian
# OVCAR-5 ovarian = test system: OVCAR-5 ovarian
# OVCAR-8 ovarian = test system: OVCAR-8 ovarian
# RPMI-8226 leukemia = test system: RPMI-8226 leukemia
# RXF 393 renal = test system: RXF 393 renal
# RXF-631 renal = test system: RXF-631 renal
# SF-268 CNS = test system: SF-268 CNS
# SF-295 CNS = test system: SF-295 CNS
# SF-539 CNS = test system: SF-539 CNS
# SK-MEL-2 melanoma = test system: SK-MEL-2 melanoma
# SK-MEL-28 melanoma = test system: SK-MEL-28 melanoma
# SK-MEL-5 melanoma = test system: SK-MEL-5 melanoma
# SK-OV-3 ovarian = test system: SK-OV-3 ovarian
# SN12C renal = test system: SN12C renal
# SNB-19 CNS = test system: SNB-19 CNS
# SNB-75 CNS = test system: SNB-75 CNS
# SNB-78 CNS = test system: SNB-78 CNS
# SW-620 colon = test system: SW-620 colon
# TK-10 renal = test system: TK-10 renal
# U251 CNS = test system: U251 CNS
# UACC-257 melanoma = test system: UACC-257 melanoma
# UACC-62 melanoma = test system: UACC-62 melanoma
# UO-31 renal = test system: UO-31 renal
# EKVX NSCLC = test system: EKVX NSCLC
# NCI-H226 lung = test system: NCI-H226 lung
# SR leukemia = test system: SR leukemia
# XF 498 CNS = test system: XF 498 CNS
smiles,measurement,setting,value
O=S(=O)(SCCCCSS(=O)(=O)c1ccc(Cl)cc1)c1ccc(Cl)cc1,TGI,786-0 renal,21.4 µM
same,TGI,A498 renal,32.9 µM
same,TGI,A549 NSCLC,37.2 µM
same,TGI,ACHN renal,31 µM
same,TGI,CAKI-1 renal,27.8 µM
same,TGI,CCRF-CEM leukemia,4.5 µM
same,TGI,COLO 205 colon,28.2 µM
same,TGI,DLD-1 colon,27.5 µM
same,TGI,DMS 114 small cell lung,20.7 µM
same,TGI,DMS 273 small cell lung,23.3 µM
same,TGI,HCC-2998 colon,34.1 µM
same,TGI,HCT-116 colon,24.3 µM
same,TGI,HCT-15 colon,27.4 µM
same,TGI,HL-60(TB) leukemia,8.85 µM
same,TGI,HOP-18 NSCLC,32.9 µM
same,TGI,HOP-62 NSCLC,36.6 µM
same,TGI,HOP-92 NSCLC,21 µM
same,TGI,HT29 colon,32.1 µM
same,TGI,IGROV1 ovarian,19.4 µM
same,TGI,K-562 leukemia,48.8 µM
same,TGI,KM12 colon,22.8 µM
same,TGI,KM20L2 colon,33.8 µM
same,TGI,LOX IMVI melanoma,11.3 µM
same,TGI,LXFL 529 NSCLC,24.7 µM
same,TGI,M14 melanoma,27.7 µM
same,TGI,M19-MEL melanoma,30.8 µM
same,TGI,MALME-3M melanoma,32.4 µM
same,TGI,MOLT-4 leukemia,10.1 µM
same,TGI,NCI-H23 lung,22.9 µM
same,TGI,NCI-H460 lung,29.5 µM
same,TGI,NCI-H522 lung,17 µM
same,TGI,OVCAR-3 ovarian,28 µM
same,TGI,OVCAR-4 ovarian,33.5 µM
same,TGI,OVCAR-5 ovarian,30.4 µM
same,TGI,OVCAR-8 ovarian,25.5 µM
same,TGI,RPMI-8226 leukemia,28.5 µM
same,TGI,RXF 393 renal,34.2 µM
same,TGI,RXF-631 renal,21.5 µM
same,TGI,SF-268 CNS,29.1 µM
same,TGI,SF-295 CNS,15.2 µM
same,TGI,SF-539 CNS,25 µM
same,TGI,SK-MEL-2 melanoma,33.2 µM
same,TGI,SK-MEL-28 melanoma,34.3 µM
same,TGI,SK-MEL-5 melanoma,30.5 µM
same,TGI,SK-OV-3 ovarian,30.1 µM
same,TGI,SN12C renal,22.5 µM
same,TGI,SNB-19 CNS,28 µM
same,TGI,SNB-75 CNS,33.3 µM
same,TGI,SNB-78 CNS,56.4 µM
same,TGI,SW-620 colon,23 µM
same,TGI,TK-10 renal,47.7 µM
same,TGI,U251 CNS,21 µM
same,TGI,UACC-257 melanoma,37.2 µM
same,TGI,UACC-62 melanoma,28.9 µM
same,TGI,UO-31 renal,21.1 µM
CCOC(=O)/C(=C/c1ccc(C(F)(F)F)cc1)N(CC)CC,TGI,786-0 renal,> 100 µM
same,TGI,A498 renal,> 100 µM
same,TGI,A549 NSCLC,> 100 µM
same,TGI,ACHN renal,> 100 µM
same,TGI,CAKI-1 renal,> 100 µM
same,TGI,CCRF-CEM leukemia,> 100 µM
same,TGI,COLO 205 colon,> 100 µM
same,TGI,DLD-1 colon,> 100 µM
same,TGI,DMS 114 small cell lung,> 100 µM
same,TGI,EKVX NSCLC,> 100 µM
same,TGI,HCC-2998 colon,> 100 µM
same,TGI,HCT-116 colon,> 100 µM
same,TGI,HCT-15 colon,> 100 µM
same,TGI,HL-60(TB) leukemia,> 100 µM
same,TGI,HOP-18 NSCLC,> 100 µM
same,TGI,HOP-62 NSCLC,> 100 µM
same,TGI,HOP-92 NSCLC,> 100 µM
same,TGI,HT29 colon,> 100 µM
same,TGI,IGROV1 ovarian,> 100 µM
same,TGI,K-562 leukemia,> 100 µM
same,TGI,KM12 colon,> 100 µM
same,TGI,LOX IMVI melanoma,> 100 µM
same,TGI,LXFL 529 NSCLC,> 100 µM
same,TGI,M14 melanoma,> 100 µM
same,TGI,MALME-3M melanoma,> 100 µM
same,TGI,MOLT-4 leukemia,> 100 µM
same,TGI,NCI-H226 lung,> 100 µM
same,TGI,NCI-H23 lung,> 100 µM
same,TGI,NCI-H460 lung,> 100 µM
same,TGI,NCI-H522 lung,> 100 µM
same,TGI,OVCAR-4 ovarian,> 100 µM
same,TGI,OVCAR-5 ovarian,> 100 µM
same,TGI,OVCAR-8 ovarian,> 100 µM
same,TGI,RPMI-8226 leukemia,> 100 µM
same,TGI,RXF-631 renal,> 100 µM
same,TGI,SF-268 CNS,> 100 µM
same,TGI,SF-295 CNS,> 100 µM
same,TGI,SF-539 CNS,> 100 µM
same,TGI,SK-MEL-2 melanoma,> 100 µM
same,TGI,SK-MEL-28 melanoma,> 100 µM
same,TGI,SK-MEL-5 melanoma,> 100 µM
same,TGI,SK-OV-3 ovarian,> 100 µM
same,TGI,SN12C renal,> 100 µM
same,TGI,SNB-75 CNS,> 100 µM
same,TGI,SNB-78 CNS,> 100 µM
same,TGI,SR leukemia,> 100 µM
same,TGI,SW-620 colon,> 100 µM
same,TGI,TK-10 renal,> 100 µM
same,TGI,U251 CNS,> 100 µM
same,TGI,UACC-257 melanoma,> 100 µM
same,TGI,UACC-62 melanoma,> 100 µM
same,TGI,UO-31 renal,> 100 µM
same,TGI,XF 498 CNS,> 100 µM
O=c1oc2c3ccc4ccccc4c3n(CCCN3CCCCC3)c2c2ccccc12,TGI,786-0 renal,37.2 µM
same,TGI,A549 NSCLC,> 100 µM
same,TGI,ACHN renal,> 100 µM
same,TGI,CAKI-1 renal,> 100 µM
same,TGI,CCRF-CEM leukemia,> 100 µM
same,TGI,COLO 205 colon,> 100 µM
same,TGI,DLD-1 colon,> 100 µM
same,TGI,DMS 114 small cell lung,> 100 µM
same,TGI,EKVX NSCLC,> 100 µM
same,TGI,HCC-2998 colon,> 100 µM
same,TGI,HCT-116 colon,> 100 µM
same,TGI,HCT-15 colon,> 100 µM
same,TGI,HL-60(TB) leukemia,42.9 µM
same,TGI,HOP-18 NSCLC,> 100 µM
same,TGI,HOP-62 NSCLC,> 100 µM
same,TGI,HOP-92 NSCLC,> 100 µM
same,TGI,HT29 colon,> 100 µM
same,TGI,IGROV1 ovarian,> 100 µM
same,TGI,K-562 leukemia,63.9 µM
same,TGI,KM12 colon,> 100 µM
same,TGI,KM20L2 colon,> 100 µM
same,TGI,LOX IMVI melanoma,> 100 µM
same,TGI,LXFL 529 NSCLC,> 100 µM
same,TGI,M14 melanoma,24.2 µM
same,TGI,M19-MEL melanoma,> 100 µM
same,TGI,MALME-3M melanoma,41 µM
same,TGI,MOLT-4 leukemia,> 100 µM
same,TGI,NCI-H460 lung,> 100 µM
same,TGI,NCI-H522 lung,> 100 µM
same,TGI,OVCAR-3 ovarian,> 100 µM
same,TGI,OVCAR-4 ovarian,> 100 µM
same,TGI,OVCAR-5 ovarian,> 100 µM
same,TGI,OVCAR-8 ovarian,> 100 µM
same,TGI,RPMI-8226 leukemia,> 100 µM
same,TGI,RXF-631 renal,> 100 µM
same,TGI,SF-268 CNS,> 100 µM
same,TGI,SF-295 CNS,> 100 µM
same,TGI,SF-539 CNS,40.8 µM
same,TGI,SK-MEL-2 melanoma,> 100 µM
same,TGI,SK-MEL-28 melanoma,50.3 µM
same,TGI,SK-OV-3 ovarian,> 100 µM
same,TGI,SNB-19 CNS,> 100 µM
same,TGI,SNB-75 CNS,> 100 µM
same,TGI,SR leukemia,> 100 µM
same,TGI,SW-620 colon,> 100 µM
same,TGI,TK-10 renal,> 100 µM
same,TGI,UACC-257 melanoma,> 100 µM
same,TGI,UACC-62 melanoma,> 100 µM
same,TGI,UO-31 renal,> 100 µM
same,TGI,XF 498 CNS,> 100 µM
